Reference: ChEMBL document CHEMBL6087397, “H2S-releasing oridonin derivatives with improved antitumor activity by inhibiting the PI3K/AKT pathway” (Bioorg Med Chem, 2024)

Columns and labels:
Type in all cases: functional, cell-based
A549 = test: Antiproliferative activity against human A549 cells assessed as inhibition of cell proliferation incubated for 48 hrs by CCK-8 assay; conditions: A549, 48 h
MCF7 = test: Antiproliferative activity against human MCF7 cells assessed as inhibition of cell proliferation incubated for 48 hrs by CCK-8 assay; conditions: MCF7, 48 h
PANC-1 = test: Antiproliferative activity against human PANC-1 cells assessed as inhibition of cell proliferation incubated for 48 hrs by CCK-8 assay; conditions: PANC-1, 48 h
MIA PaCa-2 = test: Antiproliferative activity against human MIA PaCa-2 cells assessed as inhibition of cell proliferation incubated for 48 hrs by CCK-8 assay; conditions: MIA PaCa-2, 48 h
HepG2 = test: Antiproliferative activity against human HepG2 cells assessed as inhibition of cell proliferation incubated for 48 hrs by CCK-8 assay; conditions: HepG2, 48 h

Structure (SMILES)	IC50 (A549)	IC50 (MCF7)	IC50 (PANC-1)	IC50 (MIA PaCa-2)	IC50 (HepG2)
C=C1C(=O)[C@]23[C@H](OC(=O)CCC(=O)OCC#CCOC(=O)c4ccc(N=C=S)cc4)[C@H]1CC[C@H]2[C@@]12CO[C@]3(O)[C@@H](O)[C@@H]1C(C)(C)CC[C@@H]2O	> 40 µM	> 40 µM	–	–	–
C=C1C(=O)[C@]23[C@H](OC(=O)CCC(=O)Oc4ccc(-c5nc(=O)ss5)cc4)[C@H]1CC[C@H]2[C@@]12CO[C@]3(O)[C@@H](O)[C@@H]1C(C)(C)CCC2=O	18.3 µM	19.1 µM	–	–	–
C=C1C(=O)[C@]23[C@H](OC(=O)CCCC(=O)OCCOC(=O)c4ccc(N=C=S)cc4)[C@H]1CC[C@H]2[C@@]12CO[C@]3(O)[C@@H](O)[C@@H]1C(C)(C)CC[C@@H]2O	> 40 µM	> 40 µM	–	–	–
COc1cccc2c1C(=O)c1c(O)c3c(c(O)c1C2=O)C[C@@](O)(C(=O)CO)C[C@@H]3O[C@H]1C[C@H](N)[C@H](O)[C@H](C)O1 [DOXORUBICIN]	–	–	1.19 µM	1.16 µM	–
C=C1C(=O)[C@]23[C@H](OC(=O)CCCC(=O)OCC#CCOC(=O)c4ccc(N=C=S)cc4)[C@H]1CC[C@H]2[C@@]12CO[C@]3(O)[C@@H](O)[C@@H]1C(C)(C)CC[C@@H]2O	> 40 µM	> 40 µM	–	–	–
C=C1C(=O)[C@]23[C@H](O)[C@H]1CC[C@H]2[C@@]12CO[C@]3(O)[C@@H](O)[C@@H]1C(C)(C)CCC2=O	6.84 µM	13.5 µM	–	–	–
C=C1C(=O)[C@]23[C@H](OC(=O)CCCC(=O)OCCCOC(=O)c4ccc(N=C=S)cc4)[C@H]1CC[C@H]2[C@@]12CO[C@]3(O)[C@@H](O)[C@@H]1C(C)(C)CC[C@@H]2O	> 40 µM	> 40 µM	–	–	–
C=C1C(=O)[C@]23[C@H](OC(=O)CCC(=O)OCCCCOC(=O)c4ccc(N=C=S)cc4)[C@H]1CC[C@H]2[C@@]12CO[C@]3(O)[C@@H](O)[C@@H]1C(C)(C)CC[C@@H]2OC(C)=O	> 40 µM	11.6 µM	–	–	–
C=C1C(=O)[C@]23[C@H](OC(=O)CCCC(=O)OCCOC(=O)c4ccc(N=C=S)cc4)[C@H]1CC[C@H]2[C@@]12CO[C@]3(O)[C@@H](O)[C@@H]1C(C)(C)CCC2=O	32.4 µM	19.2 µM	–	–	–
C=C1C(=O)[C@]23[C@H](OC(=O)CCC(=O)OCCOC(=O)c4ccc(N=C=S)cc4)[C@H]1CC[C@H]2[C@@]12CO[C@]3(O)[C@@H](O)[C@@H]1C(C)(C)CC[C@@H]2OC(C)=O	21.2 µM	8.8 µM	–	–	–
C=C1C(=O)[C@]23[C@H](O)[C@H]1CC[C@H]2[C@@]12CO[C@]3(O)[C@@H](O)[C@@H]1C(C)(C)CC[C@@H]2O [ORIDONIN]	14.9 µM	16 µM	19.1 µM	5.97 µM	28.1 µM
C=C1C(=O)[C@]23[C@H](OC(=O)CCCC(=O)OCc4ccc(-c5nc(=O)ss5)cc4)[C@H]1CC[C@H]2[C@@]12CO[C@]3(O)[C@@H](O)[C@@H]1C(C)(C)CC[C@@H]2OC(C)=O	14.3 µM	13 µM	–	–	–
C=C1C(=O)[C@]23[C@H](OC(=O)CCC(=O)Oc4ccc(-c5nc(=O)ss5)cc4)[C@H]1CC[C@H]2[C@@]12CO[C@]3(O)[C@@H](O)[C@@H]1C(C)(C)CC[C@@H]2OC(C)=O	15.2 µM	15.4 µM	–	–	–
C=C1C(=O)[C@]23[C@H](OC(=O)CCCC(=O)OCCCCOC(=O)c4ccc(N=C=S)cc4)[C@H]1CC[C@H]2[C@@]12CO[C@]3(O)[C@@H](O)[C@@H]1C(C)(C)CCC2=O	24.4 µM	6.93 µM	18.8 µM	11 µM	8.69 µM
C=C1C(=O)[C@]23[C@H](OC(=O)CCC(=O)OCCOC(=O)c4ccc(N=C=S)cc4)[C@H]1CC[C@H]2[C@@]12CO[C@]3(O)[C@@H](O)[C@@H]1C(C)(C)CCC2=O	32.2 µM	16.7 µM	–	–	–
C=C1C(=O)[C@]23[C@H](OC(=O)CCC(=O)OCCOC(=O)c4ccc(N=C=S)cc4)[C@H]1CC[C@H]2[C@@]12CO[C@]3(O)[C@@H](O)[C@@H]1C(C)(C)CC[C@@H]2O	> 40 µM	> 40 µM	–	–	–
C=C1C(=O)[C@]23[C@H](OC(=O)CCCC(=O)OCCCOC(=O)c4ccc(N=C=S)cc4)[C@H]1CC[C@H]2[C@@]12CO[C@]3(O)[C@@H](O)[C@@H]1C(C)(C)CC[C@@H]2OC(C)=O	> 40 µM	6.98 µM	24.8 µM	14.9 µM	> 40 µM
O=c1[nH]cc(F)c(=O)[nH]1 [FLUOROURACIL]	11.9 µM	25.1 µM	–	–	–
C=C1C(=O)[C@]23[C@H](OC(=O)CCC(=O)OCC#CCOC(=O)c4ccc(N=C=S)cc4)[C@H]1CC[C@H]2[C@@]12CO[C@]3(O)[C@@H](O)[C@@H]1C(C)(C)CCC2=O	> 40 µM	9.93 µM	–	–	–
O=C(O)c1ccc(N=C=S)cc1	> 40 µM	> 40 µM	> 40 µM	> 40 µM	> 40 µM

Structure (SMILES)	IC50 (A549)	IC50 (MCF7)	IC50 (PANC-1)	IC50 (MIA PaCa-2)	IC50 (HepG2)
C=C1C(=O)[C@]23[C@H](OC(=O)c4ccc(N=C=S)cc4)[C@H]1CC[C@H]2[C@@]12CO[C@]3(O)[C@@H](O)[C@@H]1C(C)(C)CC[C@@H]2OC(C)=O	28.1 µM	13 µM	–	–	–
C=C1C(=O)[C@]23[C@H](OC(=O)CCCC(=O)OCCCCOC(=O)c4ccc(N=C=S)cc4)[C@H]1CC[C@H]2[C@@]12CO[C@]3(O)[C@@H](O)[C@@H]1C(C)(C)CC[C@@H]2O	> 40 µM	> 40 µM	–	–	–
C=C1C(=O)[C@]23[C@H](OC(=O)CCC(=O)OCCCCOC(=O)c4ccc(N=C=S)cc4)[C@H]1CC[C@H]2[C@@]12CO[C@]3(O)[C@@H](O)[C@@H]1C(C)(C)CCC2=O	26.6 µM	8.08 µM	–	–	–
C=C1C(=O)[C@]23[C@H](OC(=O)CCCC(=O)OCCCOC(=O)c4ccc(N=C=S)cc4)[C@H]1CC[C@H]2[C@@]12CO[C@]3(O)[C@@H](O)[C@@H]1C(C)(C)CCC2=O	23.2 µM	8.43 µM	–	–	–
C=C1C(=O)[C@]23[C@H](O)[C@H]1CC[C@H]2[C@@]12CO[C@@]3(O)[C@@H](O)[C@@H]1C(C)(C)CC[C@@H]2OC(C)=O	5.47 µM	8.76 µM	–	–	–
C=C1C(=O)[C@]23[C@H](OC(=O)CCC(=O)OCCCOC(=O)c4ccc(N=C=S)cc4)[C@H]1CC[C@H]2[C@@]12CO[C@]3(O)[C@@H](O)[C@@H]1C(C)(C)CCC2=O	16.3 µM	10.4 µM	–	–	–
C=C1C(=O)[C@]23[C@H](OC(=O)CCC(=O)Oc4ccc(-c5nc(=O)ss5)cc4)[C@H]1CC[C@H]2[C@@]12CO[C@]3(O)[C@@H](O)[C@@H]1C(C)(C)CC[C@@H]2O	24.2 µM	> 40 µM	–	–	–
C=C1C(=O)[C@]23[C@H](OC(=O)CCC(=O)OCCCOC(=O)c4ccc(N=C=S)cc4)[C@H]1CC[C@H]2[C@@]12CO[C@]3(O)[C@@H](O)[C@@H]1C(C)(C)CC[C@@H]2O	36.5 µM	> 40 µM	–	–	–
C=C1C(=O)[C@]23[C@H](OC(=O)c4ccc(N=C=S)cc4)[C@H]1CC[C@H]2[C@@]12CO[C@]3(O)[C@@H](O)[C@@H]1C(C)(C)CCC2=O	21.2 µM	7.08 µM	–	–	–
C=C1C(=O)[C@]23[C@H](OC(=O)CCCC(=O)OCC#CCOC(=O)c4ccc(N=C=S)cc4)[C@H]1CC[C@H]2[C@@]12CO[C@]3(O)[C@@H](O)[C@@H]1C(C)(C)CCC2=O	> 40 µM	14 µM	–	–	–
C=C1C(=O)[C@]23[C@H](OC(=O)CCC(=O)OCC#CCOC(=O)c4ccc(N=C=S)cc4)[C@H]1CC[C@H]2[C@@]12CO[C@]3(O)[C@@H](O)[C@@H]1C(C)(C)CC[C@@H]2OC(C)=O	> 40 µM	4.49 µM	> 40 µM	28.7 µM	7.65 µM
C=C1C(=O)[C@]23[C@H](OC(=O)CCC(=O)OCCCOC(=O)c4ccc(N=C=S)cc4)[C@H]1CC[C@H]2[C@@]12CO[C@]3(O)[C@@H](O)[C@@H]1C(C)(C)CC[C@@H]2OC(C)=O	24.9 µM	8.45 µM	–	–	–
C=C1C(=O)[C@]23[C@H](OC(=O)CCCC(=O)OCCCCOC(=O)c4ccc(N=C=S)cc4)[C@H]1CC[C@H]2[C@@]12CO[C@]3(O)[C@@H](O)[C@@H]1C(C)(C)CC[C@@H]2OC(C)=O	> 40 µM	9.99 µM	–	–	–
C=C1C(=O)[C@]23[C@H](OC(=O)CCCC(=O)OCc4ccc(-c5nc(=O)ss5)cc4)[C@H]1CC[C@H]2[C@@]12CO[C@]3(O)[C@@H](O)[C@@H]1C(C)(C)CC[C@@H]2O	> 40 µM	> 40 µM	–	–	–
C=C1C(=O)[C@]23[C@H](OC(=O)CCCC(=O)OCCOC(=O)c4ccc(N=C=S)cc4)[C@H]1CC[C@H]2[C@@]12CO[C@]3(O)[C@@H](O)[C@@H]1C(C)(C)CC[C@@H]2OC(C)=O	> 40 µM	8.7 µM	–	–	–
O=c1nc(-c2ccc(O)cc2)ss1	> 40 µM	> 40 µM	–	–	–
C=C1C(=O)[C@]23[C@H](OC(=O)CCC(=O)OCCCCOC(=O)c4ccc(N=C=S)cc4)[C@H]1CC[C@H]2[C@@]12CO[C@]3(O)[C@@H](O)[C@@H]1C(C)(C)CC[C@@H]2O	> 40 µM	> 40 µM	–	–	–
C=C1C(=O)[C@]23[C@H](OC(=O)CCCC(=O)OCC#CCOC(=O)c4ccc(N=C=S)cc4)[C@H]1CC[C@H]2[C@@]12CO[C@]3(O)[C@@H](O)[C@@H]1C(C)(C)CC[C@@H]2OC(C)=O	> 40 µM	12.8 µM	–	–	–
C=C1C(=O)[C@]23[C@H](OC(=O)CCCC(=O)OCc4ccc(-c5nc(=O)ss5)cc4)[C@H]1CC[C@H]2[C@@]12CO[C@]3(O)[C@@H](O)[C@@H]1C(C)(C)CCC2=O	28.5 µM	> 40 µM	–	–	–
